Among the data in ChEMBL document CHEMBL5113438, “Discovery of highly potent and selective CRBN-recruiting EGFRL858R/T790M degraders in vivo” (Eur J Med Chem, 2022) are Activity, IC50 and Vd values, retold here.

The structures appear in SMILES notation. Active and inactive are the calls of the source. The calls are words filed in the database; no cut-off is given here.

The subject of data set [1] is NCI-H1975. The data set is described as follows: Induction of cell cycle arrest in human NCI-H1975 cells assessed as accumulation of cells in G2/M phase by PI staining based flow cytometry method. It counts as functional. Conditions: dose 0.1-1 µM, DDE = dose-dependent effect.
Data set [2] relates to HCC827. Kind of data set: Antiproliferative activity against human NCI-HCC827 cells expressing EGFR del19 incubated for 72 hrs by CCK-8 assay. It is filed as functional, cell-based. Conditions: HCC827, 72 h.
Data set [3] has as its system NCI-H1299. Kind of data set: Induction of apoptosis in human NCI-H1299 cells assessed as necrotic cells at 1.0 uM incubated for 48 hrs by AnnexinV-FITC/propidium iodide staining based flow cytometry analysis (reference value: 0.24 % ). It counts as functional.
For data set [4], the system named is NCI-H1299. The data set is described as follows: Induction of apoptosis in human NCI-H1299 cells assessed as necrotic cells at 0.1 uM incubated for 48 hrs by AnnexinV-FITC/propidium iodide staining based flow cytometry analysis (reference value: 0.24 % ). It is filed as functional.
Data set [5] can be described thus: Volume of distribution at steady state in Sprague-Dawley rat at 1 mg/kg, iv measured upto 24 hrs by LC-MS/MS analysis. It is filed as ADME, organism-based. Conditions: in vivo, read-out: Vdss.
Data set [6] deals with NCI-H1299. The data set is described as follows: Induction of apoptosis in human NCI-H1299 cells assessed as early apoptotic cells at 1.0 uM incubated for 48 hrs by AnnexinV-FITC/propidium iodide staining based flow cytometry analysis (reference value: 0.11 % ). It counts as functional.
Data set [7] deals with NCI-H1975. The data set is described as follows: Antiproliferative activity against human NCI-H1975 cells expressing EGFR L858R/T790M incubated for 72 hrs by CCK-8 assay. It counts as functional, cell-based. Conditions: NCI-H1975, 72 h.
Data set [8] concerns HEK-293T. The data set is described as follows: Cytotoxicity activity against HEK293T cells upto 300 uM incubated for 72 hrs by CCK-8 assay. Conditions: human. It counts as toxicity, cell-based.
The nature of data set [9]: Toxicity in BALB/c mouse xenografted with human NCI-H1299 cells assessed as change in body weight pretreated with compound at 10 mg/kg, ip administered once daily for 24 days and measured every 3 days […]. Conditions: in vivo, 576 h, time 24 day. It counts as organism-based.
Data set [10] concerns NCI-H1975. The data set is described as follows: Induction of apoptosis in human NCI-H1975 cells assessed as necrotic cells at 1.0 uM incubated for 48 hrs by AnnexinV-FITC/propidium iodide staining based flow cytometry analysis (reference value: 3.28 % ). It counts as functional.
For data set [11], the system named is NCI-H1975. Kind of data set: Induction of apoptosis in human NCI-H1975 cells assessed as necrotic cells at 0.1 uM incubated for 48 hrs by AnnexinV-FITC/propidium iodide staining based flow cytometry analysis (reference value: 3.28 % ). It is filed as functional.
Data set [12] deals with NCI-H1975. Kind of data set: Induction of apoptosis in human NCI-H1975 cells assessed as late apoptotic cells at 0.1 uM incubated for 48 hrs by AnnexinV-FITC/propidium iodide staining based flow cytometry analysis (reference value: 1.35 % ). It is filed as functional.
Data set [13] addresses Protein cereblon/Epidermal growth factor receptor (Homo sapiens) (UniProt P00533+Q96SW2). Kind of data set: Protac activity at CRBN/EGFR in human NCI-H1975 cells assessed as induction of EGFR degradation pretreated for 12 hrs followed by compound washout and replaced with fresh medium for 1 hr and measured after 48 hrs post compound washout by Western blot analysis. It is filed as cell-based.

Sequence of Protein cereblon/Epidermal growth factor receptor (Homo sapiens) (P00533 25-1210 limits assumed): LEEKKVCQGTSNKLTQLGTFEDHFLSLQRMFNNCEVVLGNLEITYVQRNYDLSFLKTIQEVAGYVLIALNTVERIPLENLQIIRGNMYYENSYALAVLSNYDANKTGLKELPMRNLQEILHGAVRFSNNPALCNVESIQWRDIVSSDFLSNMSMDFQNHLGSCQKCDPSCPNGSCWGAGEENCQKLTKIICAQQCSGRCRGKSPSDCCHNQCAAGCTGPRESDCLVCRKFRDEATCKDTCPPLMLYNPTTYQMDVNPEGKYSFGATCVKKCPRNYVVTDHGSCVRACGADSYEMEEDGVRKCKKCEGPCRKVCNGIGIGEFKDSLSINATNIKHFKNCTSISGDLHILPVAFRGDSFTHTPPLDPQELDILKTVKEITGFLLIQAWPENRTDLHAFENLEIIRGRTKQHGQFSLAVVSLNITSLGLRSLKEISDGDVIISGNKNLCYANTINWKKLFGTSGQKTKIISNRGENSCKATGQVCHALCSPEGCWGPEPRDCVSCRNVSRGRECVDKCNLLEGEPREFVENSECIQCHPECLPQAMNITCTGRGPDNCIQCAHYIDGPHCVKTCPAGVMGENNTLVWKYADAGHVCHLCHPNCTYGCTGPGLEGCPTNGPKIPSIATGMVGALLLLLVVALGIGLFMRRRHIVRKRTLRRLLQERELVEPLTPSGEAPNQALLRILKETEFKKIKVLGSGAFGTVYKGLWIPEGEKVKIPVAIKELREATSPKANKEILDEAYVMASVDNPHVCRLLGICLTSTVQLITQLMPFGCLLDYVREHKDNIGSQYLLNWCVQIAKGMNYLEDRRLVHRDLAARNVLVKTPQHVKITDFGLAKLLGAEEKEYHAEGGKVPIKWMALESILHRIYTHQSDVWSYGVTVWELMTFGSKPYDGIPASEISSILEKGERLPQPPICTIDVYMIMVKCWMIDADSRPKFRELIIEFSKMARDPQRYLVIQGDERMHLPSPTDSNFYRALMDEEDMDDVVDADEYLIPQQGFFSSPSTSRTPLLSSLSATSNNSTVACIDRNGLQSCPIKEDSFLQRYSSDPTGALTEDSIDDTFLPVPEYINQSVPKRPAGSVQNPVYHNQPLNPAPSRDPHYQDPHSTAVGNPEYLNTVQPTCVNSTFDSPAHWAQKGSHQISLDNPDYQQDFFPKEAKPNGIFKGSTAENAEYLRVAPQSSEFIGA
Sequence of Protein cereblon/Epidermal growth factor receptor (Homo sapiens) (Q96SW2 whole entry partner): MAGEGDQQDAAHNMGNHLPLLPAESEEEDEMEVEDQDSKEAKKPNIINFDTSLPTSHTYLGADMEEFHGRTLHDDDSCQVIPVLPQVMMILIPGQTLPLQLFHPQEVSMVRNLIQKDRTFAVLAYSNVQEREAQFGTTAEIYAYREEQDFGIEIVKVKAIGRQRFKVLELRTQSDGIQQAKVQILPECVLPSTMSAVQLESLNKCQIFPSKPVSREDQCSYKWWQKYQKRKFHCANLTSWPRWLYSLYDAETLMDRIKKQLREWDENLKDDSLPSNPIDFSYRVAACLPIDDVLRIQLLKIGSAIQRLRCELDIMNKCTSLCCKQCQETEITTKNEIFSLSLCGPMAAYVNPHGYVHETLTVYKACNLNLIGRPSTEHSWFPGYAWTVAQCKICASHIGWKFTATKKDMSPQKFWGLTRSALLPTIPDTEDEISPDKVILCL

In the case of `C#CCN(CCC(=O)Nc1cccc2c1CN(C1CCC(=O)NC1=O)C2=O)CCN(C)c1cc(OC)c(Nc2nccc(-c3cn(C)c4ccccc34)n2)cc1NC(=O)C=C` (stereo not given), the Activity result in [1] is “Dde”; in data set [3] it was 0.25%; in data set [4], 0.39%; in data set [6], 0.08%; in [8], “Non-Toxic”; in [9], “Non-Toxic”. Further, the values for the Activity in data set [10], in [11] and in [12] were 14.3%, 0.96% and 6.59%, respectively. Further, the IC50 in [2] was 1210 nM; in data set [7] it was 58.1 nM. Moreover, in data set [5], the Vd was 7.38 L/kg.
For `C#CCN(CCCC(=O)Nc1cccc2c1CN(C1CCC(=O)NC1=O)C2=O)CCN(C)c1cc(OC)c(Nc2nccc(-c3cn(C)c4ccccc34)n2)cc1NC(=O)C=C` (stereo not given), the outcome in [13] was Active. The Activity result in data set [1] was “Dde”; in data set [3], 0.37%; in [4], 0.48%; in data set [6], 0.082%; in [8], “Non-Toxic”; in data set [9], “Non-Toxic”. Moreover, the Activity in [10] amounted to 15.2%; in data set [11], 9.3%; in data set [12], 4.8%. Moreover, the figures for the 50% inhibitory concentration (IC50) in [2] and in data set [7] were 1120 nM and 46.8 nM, respectively. The Vd in [5] was determined as 7.87 L/kg.
